Where a name gives a salt, the structure may show the parent alone. Read-outs that look alike come from different tables or passages of the source.
Target: T1, TRPA1 receptor (Homo sapiens, UniProt O75762)
T1 construct: expressed in transfected cells; host or cells: HEK cell line
Assay: cell-based
Parameters: activation: dose or concentration left out as unconfirmed
Method: The term “TRPA1 activator” as used herein refers to any component which at a concentration of 1 mM gives a calcium flux count of at least 1000 counts above the background level of calcium present in the cell according to the FLIPR method as discussed herein. The term “count” is defined as the change in fluorescence of the transfected cell lines due to the influx of calcium across the cell membrane, which reacts with the calcium sensitive dye present within the cells.
In order to select TRPA1 agonists that would be preferred for reducing off-tasting chemical components found in oral care compositions, calcium flux receptor activity on the TRPA1 was utilized as the criteria for selection of actives. With allyl isothiocyanate as the TRPA1 positive control, molecules that directly activated the TRPA1 receptor were screened in dimethylsulfoxide (DMSO). Pure molecules of each material were dissolved in DMSO at a concentration of 100 micormolar and then added to an HEK cell line containing the TRPA1 receptor. If they are TRPA1 agonists, they will cause a calcium flux in the cell which fluoresces and may then be measured using a FLIPR machine.

[1] = HEK293, percentage of the control (allyl isothiocyanate) calcium count, material dissolved in DMSO at 100 micromolar, HEK cells with TRPA1, direct addition, read-out: TRPA1 Direct addition
[2] = HEK293, percentage of the control (allyl isothiocyanate) calcium count, material dissolved in DMSO at 100 micromolar, HEK cells with TRPA1, pre-incubation, read-out: TRPA1 Pre-incubation
[3] = HEK293, read-out: TRPA1 Direct addition
[4] = HEK293, read-out: TRPA1 Pre-incubation
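For TRPA1 Pre-incubation in this document: values above 100 mean more active than the control.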

T1 sequence (O75762 whole entry): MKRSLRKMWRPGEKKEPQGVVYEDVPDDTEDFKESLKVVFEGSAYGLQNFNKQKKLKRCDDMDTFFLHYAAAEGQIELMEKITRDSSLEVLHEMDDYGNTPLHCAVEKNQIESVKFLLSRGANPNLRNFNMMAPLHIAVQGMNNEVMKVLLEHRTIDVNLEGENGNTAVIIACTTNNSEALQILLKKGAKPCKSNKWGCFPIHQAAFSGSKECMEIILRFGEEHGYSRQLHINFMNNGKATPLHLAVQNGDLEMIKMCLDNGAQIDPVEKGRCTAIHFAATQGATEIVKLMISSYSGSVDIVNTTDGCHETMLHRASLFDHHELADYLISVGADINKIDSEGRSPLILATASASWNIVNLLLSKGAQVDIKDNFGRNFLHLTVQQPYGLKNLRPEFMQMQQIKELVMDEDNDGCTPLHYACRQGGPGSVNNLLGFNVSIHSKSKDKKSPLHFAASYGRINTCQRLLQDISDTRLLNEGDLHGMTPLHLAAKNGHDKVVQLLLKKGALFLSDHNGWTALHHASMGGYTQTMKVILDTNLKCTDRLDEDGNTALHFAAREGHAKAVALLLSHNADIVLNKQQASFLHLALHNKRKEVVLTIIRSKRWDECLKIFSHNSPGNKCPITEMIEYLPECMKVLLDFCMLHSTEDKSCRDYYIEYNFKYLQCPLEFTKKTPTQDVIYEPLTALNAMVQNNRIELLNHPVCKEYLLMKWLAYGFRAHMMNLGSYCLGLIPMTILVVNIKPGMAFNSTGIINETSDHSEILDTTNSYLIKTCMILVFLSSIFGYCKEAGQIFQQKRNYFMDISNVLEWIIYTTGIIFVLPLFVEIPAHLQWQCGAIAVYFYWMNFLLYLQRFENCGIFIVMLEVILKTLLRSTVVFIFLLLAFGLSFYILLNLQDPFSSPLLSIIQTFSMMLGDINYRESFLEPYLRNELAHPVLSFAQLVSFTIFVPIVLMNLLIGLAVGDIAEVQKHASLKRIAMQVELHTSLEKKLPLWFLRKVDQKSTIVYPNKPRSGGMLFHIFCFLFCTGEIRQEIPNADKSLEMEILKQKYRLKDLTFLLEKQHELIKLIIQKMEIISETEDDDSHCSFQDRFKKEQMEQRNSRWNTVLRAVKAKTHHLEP

Compound | activation at 100 µM [1] [%] | activation [2] [%] | further results
CC(=O)OC1CC2CCC1(C)C2(C)C (stereo not shown) [Bornyl Acetate] | -0.6 | 51.2 | –
CC(C)CC(=O)OC1CC2CCC1(C)C2(C)C (stereo not shown) [Bornyl Isovalerate] | -1.36 | 72.5 | –
CCCCOC(=O)CCC [Butyl Butyrate] | -0.66 | 62.3 | –
CCCCOC(=O)[C@H](C)O [Butyl L-Lactate] | -0.66 | – | activation at 100 µM [2]: 67.3%
CCCCOC(=O)CC [Butyl Propionate] | -0.32 | 53.4 | –
CCCC=O [Butyraldehyde] | 28.9 | 66.2 | –
C=C1C2CCC(C2)C1(C)C (stereo not shown) [Camphene] | -1.43 | 96.5 | –
O=CC=Cc1ccccc1 [Cinnamaldehyde] | 114 | -1.2 | –
OC/C=C/c1ccccc1 [Cinnamic Alcohol] | -1.45 | 84 | –
CC(=O)OCC=Cc1ccccc1 [Cinnamyl Acetate] | -0.13 | 70.1 | –
CC(C)CC(=O)OCC=Cc1ccccc1 [Cinnamyl Isovalerate] | -0.43 | 49.7 | –
COC(C=C(C)CCC=C(C)C)OC [Citral Dimethyl Acetal] | 0.16 | 78 | –
CC(C)=CCCC(C)CCOC=O (stereo not shown) [Citronellyl Formate] | -0.57 | 89.5 | –
CC(C)=CCCC(C)CCOCC=O (stereo not shown) [Citronellyl Oxyacetaldehyde] | 148 | -1.16 | –
CC(C)c1ccc(C=O)cc1 [Cuminaldehyde] | 25.6 | 72.9 | –
CC(=O)OC1CCCCC1 [Cyclohexyl Acetate] | -1.27 | 68.8 | –
CCOC(=O)C(C)CC (stereo not shown) [Ethyl 2-Methylbutyrate] | 0.26 | 82 | –
CCOC(=O)c1ccccc1 [Ethyl Benzoate] | -0.07 | 60.3 | –
CCCC(=O)OCC [Ethyl Butyrate] | -0.32 | 87 | –
CCCCCCC(=O)OCC [Ethyl Heptanoate] | 0.23 | 79 | –
CCCCCC(=O)OCC [Ethyl Hexanoate] | 0.41 | 92.3 | –
CCOC(=O)CC(C)C [Ethyl Isovalerate] | -0.05 | 62.8 | –
CCOC(=O)C(C)O (stereo not shown) [Ethyl Lactate] | -0.14 | 67.4 | –
CCCCCCCCCCCC(=O)OCC [Ethyl Laurate] | 0.12 | 75.8 | –
CCCCCCCC(=O)OCC [Ethyl Octanoate] | -0.14 | 87.3 | –
CCOC(=O)Cc1ccccc1 [Ethyl Phenylacetate] | – | – | activation [3]: -0.28%; activation [4]: 76.2%
CCOC(=O)c1ccccc1O [Ethyl Salicylate] | -0.53 | 106 | –

Compound | activation at 100 µM [1] [%] | activation [2] [%] | further results
CCCCC(=O)OCC [Ethyl Valerate] | -0.08 | 101 | –
O=C1CCCCCCCCCCCC(=O)OCCO1 [Ethylene Brassylate] | -0.58 | 37.2 | –
C=CCc1ccc(OC(=O)c2ccccc2)c(OC)c1 [Eugenol benzoate] | 22.9 | 57.3 | –
CC(C)=CCCC(C)=CCCC(C)=CCO [Farnesol] | 0.1 | 56.6 | –
O=Cc1ccco1 [Furfural] | -0.15 | 69 | –
CC1=CCC(C(C)C)=CC1 [Gamma-Terpinene] | 0.21 | 61.5 | –
CC(C)=CCC/C(C)=C/CO [Geraniol] | 5.19 | 113 | –
CC(=O)OC/C=C(\C)CCC=C(C)C [Geranyl Acetate] | 0.33 | 63.2 | –
CCCC(=O)OC/C=C(\C)CCC=C(C)C [Geranyl Butyrate] | 0.12 | 61.5 | –
CCC(=O)OC/C=C(\C)CCC=C(C)C [Geranyl Propionate] | 0.09 | 47.9 | –
COc1ccccc1O [Guaiacol] | -0.08 | 87.7 | –
CCCCCCCO [Heptyl Alcohol] | 0.59 | 70.7 | –
CCCCCC(=O)O [Hexanoic Acid] | -0.4 | 67.2 | –
CCCCCCOC(C)=O [Hexyl Acetate] | -0.01 | 49.1 | –
CCCCCCO [Hexyl Alcohol] | -0.22 | 66.2 | –
CCCCCCOC(=O)CCCCC [Hexyl Hexanoate] | 0.07 | 67.4 | –
CCCCCCOC(=O)CC [Hexyl Propionate] | -15.9 | 78.9 | –
CCCCCCOC(=O)C(C)CC (stereo not shown) [Hexyl-2-Methylbutyrate] | -0.38 | 67.1 | –
CC(=O)OCCC(C)C [Isoamyl Acetate] | 0.07 | 41 | –
CC(C)CCO [Isoamyl Alcohol] | – | – | activation [3]: -0.15%; activation [4]: 70.9%
CC(C)CCOC(=O)CC(C)C [Isoamyl Isovalerate] | 0.18 | 59.6 | –
CC(=O)OCC(C)C [Isobutyl Acetate] | -0.23 | 95.7 | –
CCCCCC(=O)OCC(C)C [Isobutyl Hexanoate] | -17.1 | 53.1 | –
CC/C=C\CC1=C(C)CCC1=O [Jasmone] | 46.5 | 51.6 | –
CCCCCCCCCCCC(=O)O [Lauric Acid] | -2.82 | 96 | –
CCCCCCCCCCCCO [Lauryl Alcohol] | -0.86 | 50.5 | –
C=CC(C)(O)CCC=C(C)C (stereo not shown) [Linalool] | -1.58 | 44.8 | –

Compound | activation at 100 µM [1] [%] | activation [2] [%] | further results
C=CC(C)(CCC=C(C)C)OC(C)=O (stereo not shown) [Linalyl Acetate] | -0.9 | 77.2 | –
COc1cccc(OC)c1 [M-Dimethoxybenzene] | -0.59 | 80.6 | –
CC(O)C(=O)[O-].CC(O)C(=O)[O-].[Mg+2] (stereo not shown) [Magnesium Lactate] | – | – | TRPA1 Direct addition: −4.49%; TRPA1 Pre-incubation: 58.12%
Cc1occc(=O)c1O [Maltol] | -2.79 | 102 | –
CCCCCCCCCCO [Material 1-Decanol, 1-Decanol] | -1.41 | 59.8 | –
CCCCCCCC(C)=O [Material 2-Nonanone, 2-Nonanone] | 0.36 | 77.2 | –
CCCCCCC(C)O (stereo not shown) [Material 2-Octanol, 2-Octanol] | -14.1 | 55.3 | –
CCCCCCC(C)=O [Material 2-Octanone, 2-Octanone] | -17.1 | 93.3 | –
CCCC(C)=O [Material 2-Pentanone, 2-Pentanone] | 0.73 | 90.1 | –
CCCCCCCCCC(C)=O [Material 2-Undecanone, 2-Undecanone] | 10.7 | 65.9 | –
CCCCC(O)CC (stereo not shown) [Material 3-Heptanol, 3-Heptanol] | -1.06 | 81.3 | –
CC(=O)OC1CC(C)CCC1C(C)C (stereo not shown) [Menthyl Acetate] | -7.24 | 75.8 | –
COC(=O)c1ccccc1N [Methyl Anthranilate] | 69.6 | 1.27 | –
COC(=O)/C=C/c1ccccc1 [Methyl trans-Cinnamate] | -16.8 | 69.4 | –
CCCCCCCCC=O [Nonanal] | -14 | 51.4 | –
CCCCCCCC=O [Octanal] | -11 | 87.9 | –
O=C(OCCc1ccccc1)c1ccccc1O [Phenethyl salicylate] | 7.36 | 110 | –
CC(C)C(=O)OCCOc1ccccc1 [Phenoxyethyl Isobutyrate] | -7.84 | 36.8 | –
OCCc1ccccc1 [Phenyl Ethyl Alcohol] | -4.77 | 55 | –
COC(Cc1ccccc1)OC [Phenylacetaldehyde Dimethyl Acetal] | -14.8 | 81.4 | –
CC(=O)OCCc1ccccc1 [Phenylethyl Acetate] | -22.5 | 93.8 | –
CC(C)C(=O)OCCc1ccccc1 [Phenylethyl Isobutyrate] | -3.56 | 63.9 | –
CC(=O)OCc1ccc2c(c1)OCO2 [Piperonyl Acetate] | – | – | activation at 100 µM [3]: -0.28%; activation at 100 µM [4]: 102%
CCCCCC=CC=CC(=O)OCCC [Propyl 2,4-Decadienoate] | -15.7 | 105 | –
O=C1NS(=O)(=O)c2ccccc21.[Na] [Saccharin Sodium] | – | – | activation [3]: -12.4%; activation [4]: 62.5%
O=Cc1ccccc1O [Salicylaldehyde] | 0.01 | 62.5 | –

From patent publication US9937115B2, “Oral care compositions with improved flavor” (priority 2010, dated 2018)
